# From PubChem BioAssay (NCI)
#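 Dose response: 5 concentrations. Exposure: 48 h. Format: 96-well plates. Endpoint: linear interpolation; highest concentration if not reached. Definition used: TGI = concentration required for complete inhibition of growth.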
# Legend:
# Experiment in all cases: NCI anticancer screen, dose series, 48 h
# 786-0 renal = system: 786-0 renal
# A498 renal = system: A498 renal
# A549 NSCLC = system: A549 NSCLC
# ACHN renal = system: ACHN renal
# BT-549 breast = system: BT-549 breast
# CAKI-1 renal = system: CAKI-1 renal
# COLO 205 colon = system: COLO 205 colon
# DU-145 prostate = system: DU-145 prostate
# EKVX NSCLC = system: EKVX NSCLC
# HCC-2998 colon = system: HCC-2998 colon
# HCT-116 colon = system: HCT-116 colon
# HCT-15 colon = system: HCT-15 colon
# HL-60(TB) leukemia = system: HL-60(TB) leukemia
# HOP-62 NSCLC = system: HOP-62 NSCLC
# HOP-92 NSCLC = system: HOP-92 NSCLC
# HS 578T breast = system: HS 578T breast
# HT29 colon = system: HT29 colon
# IGROV1 ovarian = system: IGROV1 ovarian
# K-562 leukemia = system: K-562 leukemia
# KM12 colon = system: KM12 colon
# LOX IMVI melanoma = system: LOX IMVI melanoma
# M14 melanoma = system: M14 melanoma
# MALME-3M melanoma = system: MALME-3M melanoma
# MCF7 breast = system: MCF7 breast
# MDA-MB-231 breast = system: MDA-MB-231 breast
# MDA-MB-435 = system: MDA-MB-435
# MDA-N = system: MDA-N
# MOLT-4 leukemia = system: MOLT-4 leukemia
# NCI-H226 lung = system: NCI-H226 lung
# NCI-H23 lung = system: NCI-H23 lung
# NCI-H460 lung = system: NCI-H460 lung
# NCI-H522 lung = system: NCI-H522 lung
# NCI/ADR-RES ovarian = system: NCI/ADR-RES ovarian
# OVCAR-3 ovarian = system: OVCAR-3 ovarian
# OVCAR-4 ovarian = system: OVCAR-4 ovarian
# OVCAR-5 ovarian = system: OVCAR-5 ovarian
# OVCAR-8 ovarian = system: OVCAR-8 ovarian
# PC-3 prostate = system: PC-3 prostate
# RXF 393 renal = system: RXF 393 renal
# SF-268 CNS = system: SF-268 CNS
# SF-295 CNS = system: SF-295 CNS
# SF-539 CNS = system: SF-539 CNS
# SK-MEL-2 melanoma = system: SK-MEL-2 melanoma
# SK-MEL-28 melanoma = system: SK-MEL-28 melanoma
# SK-MEL-5 melanoma = system: SK-MEL-5 melanoma
# SK-OV-3 ovarian = system: SK-OV-3 ovarian
# SN12C renal = system: SN12C renal
# SNB-19 CNS = system: SNB-19 CNS
# SR leukemia = system: SR leukemia
# SW-620 colon = system: SW-620 colon
# T-47D breast = system: T-47D breast
# TK-10 renal = system: TK-10 renal
# U251 CNS = system: U251 CNS
# UACC-257 melanoma = system: UACC-257 melanoma
# UACC-62 melanoma = system: UACC-62 melanoma
# UO-31 renal = system: UO-31 renal
# CCRF-CEM leukemia = system: CCRF-CEM leukemia
# RPMI-8226 leukemia = system: RPMI-8226 leukemia
# SNB-75 CNS = system: SNB-75 CNS
smiles,measurement,setting,value
Oc1ccccc1/C=N/Nc1nc(N/N=C/c2ccccc2O)nc(N/N=C/c2ccccc2O)n1,TGI,786-0 renal,> 100 µM
same,TGI,A498 renal,> 100 µM
same,TGI,A549 NSCLC,> 100 µM
same,TGI,ACHN renal,> 100 µM
same,TGI,BT-549 breast,> 100 µM
same,TGI,CAKI-1 renal,> 100 µM
same,TGI,COLO 205 colon,> 100 µM
same,TGI,DU-145 prostate,> 100 µM
same,TGI,EKVX NSCLC,> 100 µM
same,TGI,HCC-2998 colon,> 100 µM
same,TGI,HCT-116 colon,> 100 µM
same,TGI,HCT-15 colon,> 100 µM
same,TGI,HL-60(TB) leukemia,> 100 µM
same,TGI,HOP-62 NSCLC,> 100 µM
same,TGI,HOP-92 NSCLC,81.7 µM
same,TGI,HS 578T breast,> 100 µM
same,TGI,HT29 colon,> 100 µM
same,TGI,IGROV1 ovarian,> 100 µM
same,TGI,K-562 leukemia,> 100 µM
same,TGI,KM12 colon,> 100 µM
same,TGI,LOX IMVI melanoma,> 100 µM
same,TGI,M14 melanoma,> 100 µM
same,TGI,MALME-3M melanoma,> 100 µM
same,TGI,MCF7 breast,> 100 µM
same,TGI,MDA-MB-231 breast,> 100 µM
same,TGI,MDA-MB-435,> 100 µM
same,TGI,MDA-N,> 100 µM
same,TGI,MOLT-4 leukemia,> 100 µM
same,TGI,NCI-H226 lung,> 100 µM
same,TGI,NCI-H23 lung,> 100 µM
same,TGI,NCI-H460 lung,> 100 µM
same,TGI,NCI-H522 lung,> 100 µM
same,TGI,NCI/ADR-RES ovarian,> 100 µM
same,TGI,OVCAR-3 ovarian,> 100 µM
same,TGI,OVCAR-4 ovarian,> 100 µM
same,TGI,OVCAR-5 ovarian,> 100 µM
same,TGI,OVCAR-8 ovarian,> 100 µM
same,TGI,PC-3 prostate,> 100 µM
same,TGI,RXF 393 renal,> 100 µM
same,TGI,SF-268 CNS,> 100 µM
same,TGI,SF-295 CNS,> 100 µM
same,TGI,SF-539 CNS,> 100 µM
same,TGI,SK-MEL-2 melanoma,> 100 µM
same,TGI,SK-MEL-28 melanoma,> 100 µM
same,TGI,SK-MEL-5 melanoma,> 100 µM
same,TGI,SK-OV-3 ovarian,> 100 µM
same,TGI,SN12C renal,> 100 µM
same,TGI,SNB-19 CNS,> 100 µM
same,TGI,SR leukemia,> 100 µM
same,TGI,SW-620 colon,> 100 µM
same,TGI,T-47D breast,> 100 µM
same,TGI,TK-10 renal,> 100 µM
same,TGI,U251 CNS,> 100 µM
same,TGI,UACC-257 melanoma,> 100 µM
same,TGI,UACC-62 melanoma,> 100 µM
same,TGI,UO-31 renal,> 100 µM
O=c1[nH]/c(=C/c2ccc(OCc3ccccc3)cn2)c(=O)[nH]/c1=C/c1ccc([N+](=O)[O-])cc1,TGI,786-0 renal,> 100 µM
same,TGI,A498 renal,> 84.3 µM
same,TGI,A549 NSCLC,> 100 µM
same,TGI,ACHN renal,> 100 µM
same,TGI,BT-549 breast,> 100 µM
same,TGI,CAKI-1 renal,> 73.1 µM
same,TGI,CCRF-CEM leukemia,> 100 µM
same,TGI,COLO 205 colon,> 100 µM
same,TGI,DU-145 prostate,> 100 µM
same,TGI,EKVX NSCLC,> 100 µM
same,TGI,HCC-2998 colon,> 100 µM
same,TGI,HCT-116 colon,> 100 µM
same,TGI,HCT-15 colon,> 100 µM
same,TGI,HL-60(TB) leukemia,> 100 µM
same,TGI,HOP-62 NSCLC,> 100 µM
same,TGI,HOP-92 NSCLC,> 100 µM
same,TGI,HS 578T breast,> 78.4 µM
same,TGI,HT29 colon,> 100 µM
same,TGI,IGROV1 ovarian,> 100 µM
same,TGI,K-562 leukemia,> 100 µM
same,TGI,KM12 colon,> 100 µM
same,TGI,LOX IMVI melanoma,> 100 µM
same,TGI,M14 melanoma,> 100 µM
same,TGI,MALME-3M melanoma,> 100 µM
same,TGI,MCF7 breast,> 100 µM
same,TGI,MDA-MB-231 breast,> 100 µM
same,TGI,MDA-MB-435,> 100 µM
same,TGI,MDA-N,> 100 µM
same,TGI,MOLT-4 leukemia,> 100 µM
same,TGI,NCI-H226 lung,> 100 µM
same,TGI,NCI-H23 lung,> 100 µM
same,TGI,NCI-H460 lung,> 100 µM
same,TGI,NCI-H522 lung,> 100 µM
same,TGI,NCI/ADR-RES ovarian,> 100 µM
same,TGI,OVCAR-3 ovarian,> 100 µM
same,TGI,OVCAR-4 ovarian,> 100 µM
same,TGI,OVCAR-5 ovarian,> 100 µM
same,TGI,OVCAR-8 ovarian,> 100 µM
same,TGI,PC-3 prostate,> 100 µM
same,TGI,RPMI-8226 leukemia,> 100 µM
same,TGI,RXF 393 renal,> 100 µM
same,TGI,SF-268 CNS,> 100 µM
same,TGI,SF-295 CNS,> 100 µM
same,TGI,SF-539 CNS,> 100 µM
same,TGI,SK-MEL-2 melanoma,> 100 µM
same,TGI,SK-MEL-28 melanoma,> 100 µM
same,TGI,SK-MEL-5 melanoma,> 100 µM
same,TGI,SK-OV-3 ovarian,> 100 µM
same,TGI,SN12C renal,> 100 µM
same,TGI,SNB-19 CNS,> 100 µM
same,TGI,SNB-75 CNS,70.2 µM
same,TGI,SR leukemia,> 100 µM
same,TGI,SW-620 colon,> 100 µM
same,TGI,T-47D breast,> 100 µM
same,TGI,TK-10 renal,> 100 µM
same,TGI,U251 CNS,> 100 µM
same,TGI,UACC-257 melanoma,> 100 µM
same,TGI,UACC-62 melanoma,> 100 µM
same,TGI,UO-31 renal,> 100 µM
